# Reference: patent publication US7125889B2, “Treating of cardiovascular and related pathologies” (Medicure International Inc., priority 1999, dated 2006)
# Several values for one entry are separate records, joined by “and”; a condition that tells them apart may be missing. Equal values may be shown once.
# How the values were obtained:
# isolated rat hearts = assay: Ischemia reperfusion in isolated rat hearts (Langendorff), left ventricular pressures; details: for % recovery (LVDP) / LVEDP / LVSP: 30 min ischemia, 60 min reperfusion; for % recovery (LVDP) / LVEDP / LVSP / LVDP (A) / LVDP (B): P-5-P 15 μM; for LVDP (A): after ischemia (30 min ischemia, 60 min reperfusion); for LVDP (B): before ischemia
# Protocol: Male Sprague-Dawley rats weighing 250–300 g are anaesthetized with a mixture of ketamine (60 mg/kg) and xylazine (10 mg/kg).
# The left ventricular end diastolic pressure (LVEDP) is adjusted at 10 mmHg at the beginning of the experiment. […] All hearts are stabilized for a period of 30 mm and then randomly distributed into nine different experimental groups (n=5–8 per group). The experimental groups are defined as follows: • 1) Control group (control hearts are further perfused for 90 minutes for a total of […] of continuous perfusion); • 2) Ischemia reperfusion group (Ischemia reperfusion hearts are made globally ischemic by stopping the coronary flow completely for 30 mm and then the hearts are reperfused for 60 mm); • 3) P-5-P (15 μM) treated group; • 4) captopril (100 μM) treated group; • 5) verapamil (0.01 μM)) treated group; […]) treated group; […]) treated group; • 8) P-5-P+captopril treated group; • 9) P-5-P+verapamil treated group; • 10) P-5-P+propranolol treated group; • 11) P-5-P+PPADS treated group.
# Drug treatment is started 10 min before global ischemia followed by 30 min global ischemia and 60 min reperfusion. At the end of some experiments, the hearts are quickly freeze-clamped with a liquid nitrogen precooled Wollenberger tong. Rats are housed in clear cages in a temperature and humidity controlled room on a 12 hr light-dark cycle. Food and water are supplied ad libitum.
# [1] = system: rat model of coronary ligation; assay: Coronary artery ligation (myocardial infarction), mortality; assay type: in vivo; details: 21 days after coronary occlusion; once daily by gastric tube: P-5-P 10 mg/kg, captopril 100 mg/kg, propranolol 50 mg/kg, verapamil 25 mg/kg, aspirin 100 mg/kg; untreated 35%
# Text: The animals were anesthetized with ether, the skin incised along the left sternal border, the fourth rib cut proximal to the sternum, and retractors inserted. The pericardial sac was perforated and the heart was exteriorized through the intercostal space. The left coronary artery was ligated about 2 mm from its origin with a 6–0 silk suture and the heart was repositioned in the chest.
# Rats are anesthetized with 1–5% isoflurane in 100% O2 (2 L flow rate). The skin is incised along the left sterna border and the 4th rib is cut proximal to the sternum and a retractor inserted. The pericardial sac is opened and the heart externalized. The left anterior descending coronary artery is ligated approximately 2 mm from its origin on the aorta using a 6–0 silk suture. The heart is then repositioned in the chest and the incision closed via purse-string sutures.
# Sham operated rats undergo identical treatment except that the artery is not ligated. […] Unless indicated in the text, the experimental animals showing infarct size >30% of the left ventricle are used in this study. All animals are allowed to recover, allowed to receive food and water ad libitum, and are maintained for a period of 21 days for Electrocardiogram (ECG), hemodynamic, and histological assessment.
# While the complete healing of the scar occurs within 3 weeks of the coronary occlusion, mild, moderate and severe stages of congestive heart failure have been reported to occur at 4, 8 and 16 weeks after ligation.
# The rats are housed in clear cages in a temperature and humidity controlled room, on a 12 hour light-dark cycle. Food and water are supplied ad libitum. After surgery, rats are randomly assigned to treatment or non-treatment in both sham and experimental groups. Randomization of animals was performed and treatment begins 1 hour after coronary occlusion and continues for 21 days. The total duration of experiments in each case is 21 days. The groups are as follows: • 1) sham operated; • 2) coronary artery ligated (treatment with equal volumes of saline); • 3) coronary artery ligated (treated with 10 mg/kg P-5-P ); • 4) coronary artery ligated (treated with 100 mg/kg captopril); • 5) coronary artery ligated (treated with 50 mg/kg propranolol); • 6) coronary artery ligated (treated with 100 mg/kg aspirin); • 7) coronary artery ligated (treated with 25 mg/kg verapamil); • 8) coronary artery ligated (treated with 10 mg/kg P-5-P+100 mg/kg captopril); • 9) coronary artery ligated (treated with 10 mg/kg P-5-P+50 mg/kg propranolol); • 10) coronary artery ligated (treated with 10 mg/kg P-5-P+100 mg/kg aspirin); • 11) coronary artery ligated (treated with 10 mg/kg P-5-P+25 mg/kg verapamil). […]
# [2] = system: rat model of coronary ligation; assay: Hemodynamic changes, heart and scar weight after coronary artery ligation; assay type: in vivo; details: 21 days after coronary occlusion
# Protocol: The rats are housed in clear cages in a temperature and humidity controlled room, on a 12 hour light-dark cycle. Food and water are supplied ad libitum. After surgery, rats are randomly assigned to treatment or non-treatment in both sham and experimental groups. Randomization of animals was performed and treatment begins 1 hour after coronary occlusion and continues for 21 days. The total duration of experiments in each case is 21 days. The groups are as follows: • 1) sham operated; • 2) coronary artery ligated (treatment with equal volumes of saline); • 3) coronary artery ligated (treated with 10 mg/kg P-5-P ); • 4) coronary artery ligated (treated with 100 mg/kg captopril); • 5) coronary artery ligated (treated with 50 mg/kg propranolol); • 6) coronary artery ligated (treated with 100 mg/kg aspirin); • 7) coronary artery ligated (treated with 25 mg/kg verapamil); • 8) coronary artery ligated (treated with 10 mg/kg P-5-P+100 mg/kg captopril); • 9) coronary artery ligated (treated with 10 mg/kg P-5-P+50 mg/kg propranolol); • 10) coronary artery ligated (treated with 10 mg/kg P-5-P+100 mg/kg aspirin); • 11) coronary artery ligated (treated with 10 mg/kg P-5-P+25 mg/kg verapamil).
# P-5-P (10 mg/kg), captopril (100 mg/kg), propranolol (50 mg/kg), verapamil (25 mg/kg) and aspirin (100 mg/kg) were administered once daily by gastric tube.
# The animals are prepared and grouped as described in Example 10 and were anesthetized with a solution of ketamine/xylazine which was injected. To maintain adequate ventilation, the trachea was intubated; the right carotid artery was exposed for introducing a microtip pressure transducer (model SPR-249, Millar, Houston, Tex.) into the left ventricle. The catheter was secured with a silk ligature around the artery, and various hemodynamic parameters such as left ventricular systolic pressure (LVSP), left ventricular end diastolic pressure (LVEDP), rate of contraction (+dp/dt), rate of relaxation (−dP/dt) were recorded and calculated on a computer system using a Acknowledge 3.1 software.
# Once the hemodynamic parameters were measured the animals were sacrificed and hearts removed for measurement of heart weight, right ventricular weight, left ventricular weight and scar weight. Because complete healing of the scar in rats after coronary occlusion requires approximately 3 weeks, scar weight were measured only at 21 days.
# [3] = system: 10% sucrose induced hypertension in rats; assay: 10% sucrose induced hypertension, systolic blood pressure (tail cuff); assay type: in vivo, rat
# Text: Zein et al., in their publication entitled Sugar-Induced Blood Pressure Elevations Over the Lifespan of Three Substrains of Wistar Rats in Am. Coll. […] Hulman et al. in their publication entitled The Effect of Excess Dietary Sucrose on Growth, Blood Pressure, and Metabolism in Developing Sprague-Dawley Rats in Pediatr. […] Reaven et al., in their publication entitled Sugar-Induced Hypertension in Sprague-Dawley Rats in Am.
# The blood pressure is monitored using the tail cuff method. The SBP is detected on an amplifier and the Acknowledge™ computer software program is used to determine the calculations.
# The effect of concurrent administration of pyridoxal-5′-phosphate and captopril or verapamil on systolic blood pressure (marker of hypertension) in 10% sucrose induced hypertension in rats is determined.
compound,measurement,setting,value
"COc1ccc(CCN(C)CCCC(C#N)(c2ccc(OC)c(OC)c2)C(C)C)cc1OC (stereo not drawn) [Verapamil, verapamil, reference compound]",% recovery (LVDP),isolated rat hearts; Verapamil 0.01 μM,43 ± 6.6%
same,LVEDP,isolated rat hearts; Verapamil 0.01 μM,55 ± 5.1 mmHg
same,LVSP,isolated rat hearts; Verapamil 0.01 μM,78 ± 7.7 mmHg
same,% recovery (LVDP),"isolated rat hearts; Verapamil 0.01 μM, listed as verapamil",43%
same,LVDP (A),isolated rat hearts; Verapamil 0.01 μM,23 ± 4.5
same,LVDP (B),isolated rat hearts; Verapamil 0.01 μM,54 ± 9.1
same,mortality rate,[1],25%
"Cc1nc(N=Nc2ccc(S(=O)(=O)O)cc2S(=O)(=O)O)c(COP(=O)(O)O)c(C=O)c1O [PPADS, pyridoxal phosphate-6-azophenyl-2′,4′-disulphonic acid, reference compound]",% recovery (LVDP),isolated rat hearts; PPADS 100 μM,61% and 61 ± 4.8 %
same,LVEDP,isolated rat hearts; PPADS 100 μM,57 ± 6.3 mmHg
same,LVSP,isolated rat hearts; PPADS 100 μM,115 ± 11.5 mmHg
same,LVDP (A),isolated rat hearts; PPADS 100 μM,58 ± 13.6
same,LVDP (B),isolated rat hearts; PPADS 100 μM,92 ± 15.2
"Cc1ncc(COP(=O)(O)O)c(C=O)c1O [Example P5P, pyridoxal-5′-phosphate]",% recovery (LVDP),isolated rat hearts; Captopril 100 μM,78.2 ± 3.3 %
same,LVEDP,isolated rat hearts; Captopril 100 μM,35 ± 4.8 mmHg
same,LVSP,isolated rat hearts; Captopril 100 μM,98 ± 8.2 mmHg
same,% recovery (LVDP),"isolated rat hearts; Captopril 100 μM, listed as P-5-P",78.2%
same,% recovery (LVDP),isolated rat hearts; PPADS 100 μM,78.2 ± 3.3%
same,LVEDP,isolated rat hearts; PPADS 100 μM,35 ± 4.8 mmHg
same,LVSP,isolated rat hearts; PPADS 100 μM,98 ± 8.2 mmHg
same,% recovery (LVDP),"isolated rat hearts; PPADS 100 μM, listed as P-5-P",78.2%
same,% recovery (LVDP),isolated rat hearts; Propranolol 3 μM,78.2 ± 3.3 %
same,LVEDP,isolated rat hearts; Propranolol 3 μM,35 ± 4.8 mmHg
same,LVSP,isolated rat hearts; Propranolol 3 μM,98 ± 8.2 mmHg
same,% recovery (LVDP),"isolated rat hearts; Propranolol 3 μM, listed as P-5-P",78.2%
same,% recovery (LVDP),isolated rat hearts; Verapamil 0.01 μM,78.2 ± 3.3 %
same,LVEDP,isolated rat hearts; Verapamil 0.01 μM,35 ± 4.8 mmHg
same,LVSP,isolated rat hearts; Verapamil 0.01 μM,98 ± 8.2 mmHg
same,% recovery (LVDP),"isolated rat hearts; Verapamil 0.01 μM, listed as P-5-P",78.2%
same,LVDP (A),isolated rat hearts; Captopril 100 μM,63 ± 5
same,LVDP (A),isolated rat hearts; PPADS 100 μM,63 ± 5
same,LVDP (A),isolated rat hearts; Propranolol 3 μM,63 ± 5
same,LVDP (A),isolated rat hearts; Verapamil 0.01 μM,63 ± 5
same,LVDP (B),isolated rat hearts; Captopril 100 μM,80 ± 3.8
same,LVDP (B),isolated rat hearts; PPADS 100 μM,80 ± 3.8
same,LVDP (B),isolated rat hearts; Propranolol 3 μM,80 ± 3.8
same,LVDP (B),isolated rat hearts; Verapamil 0.01 μM,80 ± 3.8
same,benefit in ischemia reperfusion injury,"isolated rat hearts; given alone, summary of Tables I-IV",significant benefit
same,mortality rate,[1],15% and 10%
same,effect on scar weight,[2]; FIGS. 5-8,significant beneficial effect
same,effect on rate of contraction (+dP/dt),[2]; FIGS. 9-12,significant beneficial effect
same,effect on left ventricular end diastolic pressure (LVEDP),[2]; FIGS. 17-20,significant beneficial effect
same,effect on whole heart weight,[2]; FIGS. 21-24,significant beneficial effect
same,effect on right ventricular weight,[2]; FIGS. 25-28,significant beneficial effect
same,effect on systolic blood pressure,"[3]; treatment 1 week prior to inducing hypertension with a sucrose diet, FIGS. 29A, 29B",significant beneficial effect
same,effect on systolic blood pressure,"[3]; treatment the same day as inducing hypertension with a sucrose diet, FIGS. 30A, 30B",significant beneficial effect
same,effect on systolic blood pressure,"[3]; treatment two weeks after inducing hypertension with a sucrose diet, FIGS. 31A, 31B",significant beneficial effect
"CC(C)NCC(O)COc1cccc2ccccc12 (stereo not drawn) [Propranolol, propranolol, reference compound]",% recovery (LVDP),isolated rat hearts; Propranolol 3 μM,74 ± 4.9 %
same,LVEDP,isolated rat hearts; Propranolol 3 μM,27 ± 6.6 mmHg
same,LVSP,isolated rat hearts; Propranolol 3 μM,72 ± 15.1 mmHg
same,% recovery (LVDP),"isolated rat hearts; Propranolol 3 μM, listed as propranolol",74%
same,LVDP (A),isolated rat hearts; Propranolol 3 μM,45 ± 9.7
same,LVDP (B),isolated rat hearts; Propranolol 3 μM,61 ± 10.8
"C[C@H](CS)C(=O)N1CCC[C@H]1C(=O)O [Captopril, captopril, reference compound]",% recovery (LVDP),isolated rat hearts; Captopril 100 μM,61.4 ± 5.2 %
same,LVEDP,isolated rat hearts; Captopril 100 μM,54 ± 6.7 mmHg
same,LVSP,isolated rat hearts; Captopril 100 μM,101 ± 14.6 mmHg
same,% recovery (LVDP),"isolated rat hearts; Captopril 100 μM, listed as captopril",61.4%
same,LVDP (A),isolated rat hearts; Captopril 100 μM,47 ± 8.6
same,LVDP (B),isolated rat hearts; Captopril 100 μM,78 ± 10.9
same,mortality rate,[1],15%
CC(=O)Oc1ccccc1C(=O)O [aspirin],mortality rate,[1],25%
